Experiment: gradient 5% acetonitrile 3 min, to 50% in 2 min, to 85% in 15 min, held 3 min, 100 µL/min
Conditions: column: Zorbax Extend-C18 2.1 x 50 mm; eluents: water / acetonitrile, 0.1% formic acid
How it was run: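 Standards, all pure, were combined into mixtures of ~100 molecules and run at 100 μL/min on a Zorbax Extend-C18 column (2.1 × 50 mm, 1.8 μm) with water and acetonitrile, each containing 0.1% formic acid. A coupled quadrupole time-of-flight mass spectrometer operated in positive and negative ionization mode. Retention time values come from computationally picked adduct peaks, each inspected manually.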

SMILES	RP-LC retention time
CCC(C)(C)NC(=O)c1c(C)oc2ccn(Cc3ccc(F)cc3)c(=O)c12	1140 s
Cc1ccc(-c2csc3c(=O)n(Cc4ccccn4)cnc23)cc1	889 s
Cc1ccc(CNC(=O)c2ccc(-c3cncnc3)nc2)cc1C	782 s
O=C1CCC(C(=O)N2CCN(c3ccc(-n4cccn4)nn3)CC2)N1 (stereo unspecified)	548 s
O=c1ccc(S(=O)(=O)N2CCCC2)cn1Cc1cccc(F)c1	826 s
CCc1nc(-c2csc(S(=O)(=O)N3CCC(C(=O)Nc4ccccc4F)CC3)c2)no1	981 s
CC1=C(c2ccccc2)S(=O)(=O)N=C1N1CCCN(C(=O)c2ccc(F)cc2)CC1	805 s
CC(=O)c1ccc(NC(=O)c2[nH]c3cc(C)sc3c2CN2CCCC2)cc1	665 s
CC(C)CN1C(=O)CCc2cc(NS(=O)(=O)c3ccc(Cl)cc3)ccc21	946 s
CCn1c(=O)c2ccn(CC(=O)N3CCCc4ccccc43)c2n(CC)c1=O	776 s
O=C(C1=CN(c2ccc3c(c2)OCCO3)c2cc(F)ccc2S1(=O)=O)N1CCOCC1	750 s
CCc1cccc(NC(=O)C2(C)Oc3cccnc3N(C(C)C)C2=O)c1 (stereo unspecified)	1120 s
CC(C)C(=O)N1[C@H]2CC[C@@H]1c1cnc(-c3ccc(F)cc3)nc1C2	871 s
Cc1ccc(C(=O)N2C[C@@H]3C[C@H]2C[C@@H]3NS(=O)(=O)c2cccs2)cc1F	827 s
COc1cccc(CCC(=O)Nc2ccc3ncnc(N4CCCC4)c3c2)c1	683 s
COC(=O)C1CCN(C(=O)c2csc(Nc3ncccn3)n2)CC1	644 s
Cc1cccc(-c2ncccc2CNS(=O)(=O)c2ccccc2F)c1	702 s
CN1c2ccc(Cl)cc2C(=O)NC12CCN(C(=O)NC1CCCCC1)CC2	818 s
COCC(=O)NC1CCC12CCN(C(=O)CC(C)C)CC2 (stereo unspecified)	675 s
CCN(Cc1ccccc1)C(=O)CS(=O)Cc1cnn(-c2ccccc2)c1-n1cccc1 (stereo unspecified)	825 s
CCc1cccc(C)c1NC(=O)C1CCCN(S(=O)(=O)c2ccc(OC)c(Cl)c2)C1 (stereo unspecified)	1020 s
O=C(c1ccc(N2C(=O)CCS2(=O)=O)cc1)N1CCN(c2ccccn2)CC1	548 s

SMILES	RP-LC retention time
CN(C)c1cccc(C(=O)NCC2(O)CCCC2)c1	569 s
Fc1ccc2nc(Nc3nc(-c4ccncc4)cs3)sc2c1	588 s
CC(=O)c1cccc(NC(=O)NC(c2ccccc2)c2nnc(-c3ccccc3)o2)c1 (stereo unspecified)	892 s
CCCn1cnc2cc(-c3noc(CNC(=O)c4ccccc4)n3)ccc21	667 s
CC(=O)N1CCC2(CC1)OC(=O)C(C)=C2C(=O)NCCCN1CCN(c2cc(C)ccc2C)CC1	639 s
Fc1ccccc1-c1noc(-c2nc(-c3ccncc3)no2)n1	951 s
CCCCS(=O)(=O)N1CC(c2nc(C)no2)C2(CCOCC2)C1 (stereo unspecified)	783 s
CCOC(=O)c1noc2nc(C)nc(NCC3CCN(Cc4ccccc4F)CC3)c12	595 s
O=C(NC1CCN(c2cc(N3CCOCC3)cnn2)C1)c1ccc(Cl)s1 (stereo unspecified)	610 s
COCCN1C(=O)c2cccn2CC1CNC(=O)CC(C)C (stereo unspecified)	639 s
CC(=O)N1c2ccc(S(=O)(=O)N3CCCCCC3)cc2CC1C(=O)NCCCc1ccccc1 (stereo unspecified)	975 s
CC(C)NCc1ccc(-c2cc(Cl)ccc2Cl)o1	709 s
CCCNC(=O)N1CCN(Cc2nc3cccnc3n2-c2ccccc2)CC1	597 s
CN(c1nc(-c2ccc([N+](=O)[O-])cc2)nc2ccccc12)C1CCCCC1	993 s
Cc1ccc(NC(=O)N2CCc3nc(-c4ccc(Cl)cc4)ncc3C2)cc1	783 s
Cc1cc(OCC(=O)N[C@H](C(=O)O)C(C)C)c2c3c(c(=O)oc2c1)CCC3	788 s
Cc1nnc(NC(=O)c2cc(C3CC3)n(C3CCS(=O)(=O)C3)n2)s1 (stereo unspecified)	646 s
Cc1ccc(CNC2=NCCNC23CCN(S(=O)(=O)c2ccc(Cl)cc2)CC3)cc1	778 s
CCn1ncc(C(=O)NCCn2c(C)cnc2C2CCC2)c1C	567 s
Cc1cccc(OCC(=O)c2ccc3c(c2)N(C(C)C(=O)N2CCCC2)C(=O)CO3)c1C (stereo unspecified)	922 s
CCn1c(C(=O)NCCc2ccc(S(N)(=O)=O)cc2)cc2sc(Cl)cc21	860 s
Cn1nccc1C(=O)Nc1ccsc1-c1nc(-c2ccccc2)no1	1280 s

SMILES	RP-LC retention time
CCOc1ccc(C(=O)N2CCC3(CC2)C(=O)N(C)c2ccccc23)cc1OCC	842 s
CCOC(=O)c1c(N)n(Cc2ccccc2)c2nc3ccccc3nc12	739 s
COc1ccc(OC)c(C(C)NC(=O)C2CCCN(c3nccnc3Sc3ccc(C)cc3)C2)c1 (stereo unspecified)	1150 s
CCc1onc(C)c1C1CCCN1C(=O)Nc1cccc(F)c1 (stereo unspecified)	832 s
COc1ccc(N2CC(c3noc(-c4ccc(N(C)C)cc4)n3)CC2=O)cc1 (stereo unspecified)	889 s
Cc1cc(C)c(C(=O)N2CCC(CC(=O)NCc3ccc(F)cc3)CC2)[nH]1	759 s
CCn1nc(C)c(CCNC(=O)C2CCCN(C(=O)c3[nH]c(C)cc3C)C2)c1C (stereo unspecified)	630 s
O=C1CC(c2ccccc2)N(S(=O)(=O)c2cccc3nsnc23)CCCCCCN1 (stereo unspecified)	886 s
CN(CCc1noc(-c2ccc(C(=O)N3CCOCC3)cc2)n1)C(=O)Cc1ccc(Cl)cc1	757 s
COc1cccc(Cn2c(=O)c3sccc3n(Cc3nc(-c4cccc(C)c4)no3)c2=O)c1	1160 s
COc1ccc(N2CC(c3nc(-c4ccccc4Cl)no3)CC2=O)cc1 (stereo unspecified)	926 s
COC(=O)c1cccc(NC(=O)c2sc(-c3cn(C(C)C)c4ncccc34)nc2C)c1	1060 s
Cn1ncc2c3ccccc3n(CC(=O)N3CCC(C(N)=O)CC3)c2c1=O	611 s
CC(C)c1ccc(S(=O)(=O)N(C)CC2CCOCC2)cc1	1010 s
O=c1cc(-c2cc(O)c(O)c([C@@H]3O[C@H](CO)[C@@H](O)[C@H](O)[C@H]3O)c2)oc2cc(O[C@@H]3O[C@H](CO)[C@@H](O)[C@H](O)[C@H]3O)cc(O)c12	648 s
O=C(Nc1ccc2c(c1)OCCO2)C1CCCN(c2nccnc2Sc2ccccc2)C1 (stereo unspecified)	1030 s
Cc1c(C(=O)C(=O)N(C)Cc2ccccc2)c2ccccc2n1C	900 s
O=C(NCCCN1CCN(c2ccccc2)CC1)C1CCCN(c2nc3cccnc3s2)C1 (stereo unspecified)	643 s
COc1ccc(-c2nc(C)cc(C)c2CNS(=O)(=O)c2cccc(OC)c2)cc1	656 s
Cc1csc(-c2cc(S(=O)(=O)NC(C)(C)C)cn2CC(=O)N2CCCCC2)n1	926 s
Cc1cccc(CN2CCN(C3CCN(C(=O)Nc4ccccc4)CC3)C2=O)c1	851 s
O=S(=O)(c1cccc(C(F)(F)F)c1)N1CCOCC1	794 s

SMILES	RP-LC retention time
CCc1noc([C@@H]2CC(F)(F)CN2C(=O)c2cn(C)cn2)n1	644 s
C[C@H]1CN(C(=O)c2nn(C)c3ccccc23)C[C@@H]1c1nc(-c2cccnc2)no1	862 s
Cc1ccc(C)c(NS(=O)(=O)c2cc(-c3[nH]ncc3C(=O)N3CCOCC3)oc2C)c1	701 s
O=C(C1CCN(S(=O)(=O)N2CCOCC2)CC1)N1CCC(c2nc(C3CCOCC3)no2)C1 (stereo unspecified)	656 s
CC(=O)N1CCc2cc(N3CC(C(=O)NCc4ccc5c(c4)OCO5)CC3=O)ccc21 (stereo unspecified)	659 s
Cc1ccc(-n2c(N3CCCC(C(=O)NCc4ccc(F)cc4)C3)nc3ccsc3c2=O)cc1 (stereo unspecified)	919 s
O=C(NCc1cccs1)C1CCN(c2cnc(N3CCCCCC3)nc2)CC1	732 s
O=C(NCCN1CCCC1)c1cc2n(n1)CCCN(Cc1ccc(Cl)cc1)C2=O	627 s
Cc1sc2ccn(CC(C)C)c(=O)c2c1C(=O)NCc1ccc(F)cc1F	983 s
Cc1ccc(NC(=O)C2CCCN(c3ncnc4c3nc3n4CCCCC3)C2)c(C)c1 (stereo unspecified)	824 s
O=C(Cn1cc(-c2nnco2)c2ccccc21)NCc1cccc(Br)c1	774 s
Cn1ccc2cc(S(=O)(=O)N3CCCC(C(=O)NCCN4CCCCCC4)C3)ccc21 (stereo unspecified)	668 s
COc1ccc(-c2nc(C3CC(=O)N(c4ccc(F)c(Cl)c4)C3)no2)cc1OC (stereo unspecified)	963 s
O=C(C1COCC(=O)N1Cc1ccccc1)N1CCN(c2ccc(C(F)(F)F)cn2)CC1 (stereo unspecified)	782 s
O=S(=O)(Cc1ccccc1)N1CCc2nc(-c3ccc(Cl)cc3)ncc2C1	1150 s
CCN(C(=O)CN1C(=O)CCCc2cc(S(=O)(=O)N3CCC(C)CC3)ccc21)c1ccccc1	1050 s
Cc1nc(N2CCOCC2)c2c(C(=O)Nc3ccc(Cl)cc3)c(C)oc2n1	883 s
CC1=C(C(=O)Nc2ccc(F)cc2C)C2(CCCCCC2)OC1=O	972 s
Cc1nn(-c2ccc(Cl)cc2)c(C)c1S(=O)(=O)N1CCC(C(=O)N2CCN(C)CC2)CC1	642 s
CC(C)CCNC(=O)CC1Sc2ncccc2N(CC(C)C)C1=O (stereo unspecified)	868 s
